Results taken from paper PMC9101642 (Molecules, 2022).
Read-outs that look alike come from different tables or passages of the source. Marks after values point to notes of the source that are not given here.

How the values were obtained:
[1] = Serum biochemical markers after treatment of MNU-induced rats; assay type: in vivo, Wistar rats; set-up: TBC: unit not given here; details: for ALP (A/L) / ALT (A/L) / AST (U/L) / γ-GT (U/L): serum; for TBC: total bilirubin content
Outline: (§1)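 Mammary tumours induced in rats by MNU 50 mg/kg i.p. at day 50; after two weeks, compounds given orally at 5 or 50 mg/kg once daily for six weeks. Serum AST, ALT (340 nm), ALP (405 nm) and bilirubin measured; liver homogenate GSH, CAT, MDA by colorimetry; plasma binding by ultrafiltration at 37°C with BCA protein read-out.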

[2] = target: T1, ERα (Homo sapiens, UniProt P03372); test: Fluorescence polarization competition assay: antagonistic potency and relative binding affinity; details: for Ki: calculated antagonistic (inhibitory) constant, read-out: Ka ERα; for IC50: concentration that antagonizes 50% of ERα signaling activity, read-out: ERα (IC50 nM); for logRBA ERα: log of % relative binding affinity, estradiol = 100%; for ERα potency, fold higher than Ral: ratio of IC50 values
T1 sequence (P03372 1-595): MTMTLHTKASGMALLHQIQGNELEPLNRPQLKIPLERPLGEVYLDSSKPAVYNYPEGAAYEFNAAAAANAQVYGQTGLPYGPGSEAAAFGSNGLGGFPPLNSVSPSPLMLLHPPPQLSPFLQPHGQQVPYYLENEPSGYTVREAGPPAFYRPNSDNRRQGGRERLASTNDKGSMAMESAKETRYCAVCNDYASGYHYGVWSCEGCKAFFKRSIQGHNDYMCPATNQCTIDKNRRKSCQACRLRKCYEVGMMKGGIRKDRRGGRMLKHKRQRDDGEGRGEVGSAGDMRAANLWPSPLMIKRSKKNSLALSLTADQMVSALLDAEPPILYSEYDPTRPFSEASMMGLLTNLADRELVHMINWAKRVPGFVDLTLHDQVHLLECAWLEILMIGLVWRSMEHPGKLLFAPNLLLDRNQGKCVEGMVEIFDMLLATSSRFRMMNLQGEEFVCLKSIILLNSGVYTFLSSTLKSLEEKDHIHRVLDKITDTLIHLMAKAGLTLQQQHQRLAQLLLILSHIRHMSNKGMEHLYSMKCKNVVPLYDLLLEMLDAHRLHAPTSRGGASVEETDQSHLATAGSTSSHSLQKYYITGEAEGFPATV

[3] = target: T1, ERα; test: ERα down-regulation immunofluorescence assay in MCF-7; assay type: cell-based; details: ERα downregulation measured in MCF-7; read-out: MCF-7 DR (IC50 nM)
[4] = tested on: MDA-MB-231 cell lines; test: MTT antiproliferative assay; assay type: cell-based, human; details: Homo sapiens, read-out: MDA-MB-231 (IC50 nM)
[5] = rat, in vivo
[6] = tested on: MCF-7 cells; test: Cell cycle distribution by flow cytometry; assay type: cell-based, human; details: 24 h
[7] = tested on: progesterone receptor (PR); test: ERα functional antagonism cell assay (PR as biomarker) in MCF-7; assay type: cell-based; details: Homo sapiens, MCF7; progesterone receptor as biomarker for ERα antagonism in MCF-7
[8] = target: ERβ (Homo sapiens, UniProt Q92731); test: Fluorescence polarization competition assay: antagonistic potency and relative binding affinity; details: for Ki: calculated antagonistic (inhibitory) constant, read-out: Ka ERβ; for IC50: concentration that antagonizes 50% of ERβ signaling activity, read-out: ERβ (IC50 nM); for logRBA ERβ: log of % relative binding affinity, estradiol = 100%
Chain of ERβ (Q92731 whole entry): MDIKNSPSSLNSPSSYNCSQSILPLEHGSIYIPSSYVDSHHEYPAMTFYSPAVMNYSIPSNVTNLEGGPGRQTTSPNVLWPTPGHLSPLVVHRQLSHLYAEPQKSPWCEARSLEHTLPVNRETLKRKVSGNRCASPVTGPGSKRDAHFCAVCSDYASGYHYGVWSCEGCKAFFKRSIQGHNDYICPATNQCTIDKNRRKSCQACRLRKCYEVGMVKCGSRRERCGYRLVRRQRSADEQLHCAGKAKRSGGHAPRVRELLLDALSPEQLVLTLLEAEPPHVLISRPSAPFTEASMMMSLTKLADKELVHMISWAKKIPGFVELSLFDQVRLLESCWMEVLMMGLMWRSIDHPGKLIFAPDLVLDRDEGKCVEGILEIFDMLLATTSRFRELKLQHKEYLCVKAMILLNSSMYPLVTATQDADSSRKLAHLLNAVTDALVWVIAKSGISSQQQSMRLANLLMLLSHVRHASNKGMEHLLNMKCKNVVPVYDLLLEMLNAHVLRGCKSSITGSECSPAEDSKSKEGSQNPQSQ

[9] = MTT antiproliferative assay (neutral control); details: human
[10] = tested on: p53 promoter activity (p21 promoter); test: qChIP of ERα-p53 interaction on the p21 promoter in MCF-7; assay type: cell-based, human
[11] = tested on: MNU-induced breast cancer tissue; test: Histopathology of breast sections; assay type: in vivo, Wistar rats
Outline: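 Rats with MNU-induced breast cancer were given selected leads at two concentrations. Breast tissue was examined histopathologically for lobuloalveolar units and epithelial changes, with slides photographed at 200x.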

[12] = Liver oxidative stress markers after treatment of MNU-induced rats; assay type: in vivo, Wistar rats; set-up: CAT: unit not given here; details: liver; for CAT: catalase activity; for GSH: reduced glutathione; for SOD (U/mg): superoxide dismutase activity; for TP: total protein content
Outline: as §1

For `CC(=O)c1cc(C(=O)OC2/C=C/C(=O)O[C@@H](O)CCC/C=C/[C@@H]3C[C@H](O)C[C@@H]23)ccc1OCCN1CCC=C(C(=O)O)C1` (stereo partly drawn) [Compound 3DPQ-3, 1-(2-(2-acetyl-4-((((2E,6R,10E,11aS,13S,14aR)-6,13-dihydroxy-4-oxo-4,6,7,8,9,11a,12,13,14,14a-decahydro-1H-cyclopenta[f][1]oxacyclotridecin-1-yl)oxy)carbonyl)phenoxy)ethyl)-1,2,5,6-tetrahydropyridine-3-carboxylic acid], the “ALP (A/L)” value ([1]; dose 5 mg/kg) was 87.47±0.21 A/L, the “ALT (A/L)” value ([1]; dose 5 mg/kg) was 49.84±0.59 A/L and the “AST (U/L)” value ([1]; dose 5 mg/kg) was 58.43±0.31 U/L. For the same molecule, the “γ-GT (U/L)” value ([1]; dose 5 mg/kg) was 10.36±0.45 U/L, the “ALP (A/L)” value ([1]; dose 50 mg/kg) was 86.65±0.44 A/L and the “ALT (A/L)” value ([1]; dose 50 mg/kg) was 55.84±0.79 A/L. The “AST (U/L)” value ([1]; dose 50 mg/kg) was 61.63±0.47 U/L, the “γ-GT (U/L)” value ([1]; dose 50 mg/kg) was 11.64±0.84 U/L and the TBC ([1]; dose 5 mg/kg) was 17.54±0.36. The TBC ([1]; dose 50 mg/kg) was 20.32, the Ki [2] was 0.1 nM and the IC50 [2] was 0.44 ± 0.31 nM. For the same molecule, the “logRBA ERα” value [2] was 2.31 ^†,‡,§, the “ERα potency, fold higher than Ral” value [2] was 1.68 fold and the IC50 [3] was > 100 nM. For the same molecule, the IC50 ([4]; MDA-MB-231, 48 h) was 86.63 ± 0.68 nM, the “WL after MFD (day 1, mg)” value [5] was 320,45 ± 0.62 mg and the “Cell Cycle (%) G0/G1” value ([6]; 0.1 nM) was 72.99 ± 1.32 *^,†,‡,§ %. For the same molecule, the “Cell Cycle (%) G2/M” value ([6]; 0.1 nM) was 18.03 ± 1.65 *^,†,‡,§ %, the “Cell Cycle (%) S” value ([6]; 0.1 nM) was 8.98 ± 1.64 *^,†,‡,§ % and the “Cell Cycle (%) G0/G1” value ([6]; 1 nM) was 75.45 ± 1.53 *^,†,‡,§ %. For the same molecule, the “Cell Cycle (%) G2/M” value ([6]; 1 nM) was 14.87 ± 2.43 *^,†,‡,§ %, the “Cell Cycle (%) S” value ([6]; 1 nM) was 9.69 ± 0.94 *^,†,‡,§ % and the IC50 [7] was > 100 nM. The Ki [8] was 42.1 nM, the IC50 [8] was 74.86 ± 0.14 nM and the “logRBA ERβ” value [8] was 0.08 ^†,‡,§. The IC50 at 48 h [9] was > 100 nM, the “p53 promoter activity, fold higher than the one provoked by Ral” value ([10]; higher concentration (1 nM)) was 0.61 fold and the “p53 promoter activity, fold higher than the one provoked by Ral” value ([10]; lower concentration (0.1 nM)) was 0.68 fold. The breast section histopathology ([11]; 5 mg/kg of bwt) was “lobuloalveolar unit (LaU) and cuboidal epithelial cells (CE)”, the breast section histopathology ([11]; 50 mg/kg of bwt) was “lobuloalveolar unit (LaU) and cuboidal epithelial cells (CE)” and the CAT ([12]; dose 5 mg/kg) was 17.46±0.82. The CAT ([12]; dose 50 mg/kg) was 18.32±0.63, the “TBARS” value ([12]; dose 5 mg/kg) was 0.24 nmol/mg and the “TBARS” value ([12]; dose 50 mg/kg) was 0.56 ± 0.32 nmol/mg. For the same molecule, the “GSH” value ([12]; dose 5 mg/kg) was 9.15 mg/g, the “GSH” value ([12]; dose 50 mg/kg) was 9.74 mg/g and the “SOD (U/mg)” value ([12]; dose 5 mg/kg) was 7.32±0.18 U/mg. The “SOD (U/mg)” value ([12]; dose 50 mg/kg) was 11.46±0.36 U/mg, the “TP” value ([12]; dose 5 mg/kg) was 38.32 g/L and the “TP” value ([12]; dose 50 mg/kg) was 46.47 g/L.

In the case of `CC(=O)c1cc(C(=O)O[C@@H]2/C=C/C(=O)O[C@@H](O)CCC/C=C/[C@@H]3C[C@H](O)C[C@H]32)ccc1OCCN1CC(C(=O)O)=CCC1=O` [Compound 3DPQ-9, 1-(2-(2-acetyl-4-((((1R,2E,6R,10E,11aS,13S,14aR)-6,13-dihydroxy-4-oxo-4,6,7,8,9,11a,12,13,14,14a-decahydro-1H-cyclopenta[f][1]oxacyclotridecin-1-yl)oxy)carbonyl)phenoxy)ethyl)-6-oxo-1,2,5,6-tetrahydropyridine-3-carboxylic acid], the “ALP (A/L)” value ([1]; dose 5 mg/kg) is reported as 125.54±0.21 A/L, the “ALT (A/L)” value ([1]; dose 5 mg/kg) is reported as 46.58±0.94 A/L and the “AST (U/L)” value ([1]; dose 5 mg/kg) is reported as 64.52±0.43 U/L. For the same molecule, the “γ-GT (U/L)” value ([1]; dose 5 mg/kg) was 10.32 U/L, the “ALP (A/L)” value ([1]; dose 50 mg/kg) was 139.42±0.31 A/L and the “ALT (A/L)” value ([1]; dose 50 mg/kg) was 51.95±0.86 A/L. The “AST (U/L)” value ([1]; dose 50 mg/kg) was 69.76±0.74 U/L, the “γ-GT (U/L)” value ([1]; dose 50 mg/kg) was 12.36±0.53 U/L and the TBC ([1]; dose 5 mg/kg) was 22.33. It also gave a TBC ([1]; dose 50 mg/kg) of 24.46, a Ki [2] of 0.1 nM and an IC50 [2] of 0.45 ± 0.14 nM. For the same molecule, the “logRBA ERα” value [2] was 2.30 ^†,‡,§, the “ERα potency, fold higher than Ral” value [2] was 1.64 fold and the IC50 [3] was > 100 nM. For the same molecule, the IC50 ([4]; MDA-MB-231, growth inhibition, 48 h) was 81.63 ± 0.42 nM, the “WL after MFD (day 1, mg)” value [5] was 315.54 ± 0.65 mg and the “Cell Cycle (%) G0/G1” value ([6]; 0.1 nM) was 71.47 ± 0.99 *^,†,‡,§ %. The “Cell Cycle (%) G2/M” value ([6]; 0.1 nM) was 15.56 ± 2.65 *^,†,‡,§ %, the “Cell Cycle (%) S” value ([6]; 0.1 nM) was 12.97 ± 1.65 *^,†,‡,§ % and the “Cell Cycle (%) G0/G1” value ([6]; 1 nM) was 75.93 ± 152 *^,†,‡,§ %. For the same molecule, the “Cell Cycle (%) G2/M” value ([6]; 1 nM) was 10.40 ± 3.54 *^,†,‡,§ %, the “Cell Cycle (%) S” value ([6]; 1 nM) was 13.68 ± 1.74 *^,†,‡,§ % and the IC50 [7] was > 100 nM. The Ki [8] was 46.9 nM, the IC50 [8] was 83.56 ± 0.46 nM and the “logRBA ERβ” value [8] was 0.03 ^†,‡,§. For the same molecule, the IC50 at 48 h ([9]; MRC-5 lung fibroblast cells) was > 100 nM, the “p53 promoter activity, fold higher than the one provoked by Ral” value ([10]; higher concentration (1 nM)) was 0.66 fold and the “p53 promoter activity, fold higher than the one provoked by Ral” value ([10]; lower concentration (0.1 nM)) was 0.68 fold. The breast section histopathology ([11]; 5 mg/kg of bwt) was “lobuloalveolar unit (LaU) and cuboidal epithelial cells (CE)”, the breast section histopathology ([11]; 50 mg/kg of bwt) was “lobuloalveolar unit (LaU) and cuboidal epithelial cells (CE)” and the CAT ([12]; dose 5 mg/kg) was 10.83±0.46. The CAT ([12]; dose 50 mg/kg) was 13.32±0.54, the “TBARS” value ([12]; dose 5 mg/kg) was 0.96 nmol/mg and the “TBARS” value ([12]; dose 50 mg/kg) was 0.96 ± 0.24 nmol/mg. For the same molecule, the “GSH” value ([12]; dose 5 mg/kg) was 8.66 mg/g, the “GSH” value ([12]; dose 50 mg/kg) was 8.89 mg/g and the “SOD (U/mg)” value ([12]; dose 5 mg/kg) was 7.74±0.37 U/mg. The “SOD (U/mg)” value ([12]; dose 50 mg/kg) was 14.43±0.35 U/mg and the “TP” value ([12]; dose 50 mg/kg) was 39.43 g/L.
